Earlier results as cited in US20040167355A1, “Hydrocarbon products and methods of preparing hydrocarbon products” (priority 2003, published 2004).

Experiments:
[1] = 1% solution of the sodium salt of the surfactant
[2] = 25° C.; 450 ppm surfactant, 420 ppm hardness (3:1 Ca++:Mg++)

| SMILES | Krafft temperature [1] | loss of surfactant in hard water [2] |
| --- | --- | --- |
| CCCCCCCCCCC(C)c1ccc(S(=O)(=O)O)cc1 (stereo not shown) [2-Phenyl Dodecyl Benzene Sulfonate] | 36 °C | 100% |
| CCCCCCCC(C)CCC(C)c1ccc(S(=O)(=O)O)cc1 (stereo not shown) [5-Methyl-2-Phenyl Dodecyl Benzene Sulfonate] | 16 °C | 5% |
